Reference: patent publication US9629816B2, “Small molecule therapeutic compounds targeting thioesterase deficiency disorders and methods of using the same” (The United States of America, as represented by the …, priority 2011, dated 2017)

How the values were obtained:
[1] = system: INCL fibroblasts; assay: MTT viability of cultured INCL fibroblasts; type: cell-based, human; conditions: 48 hours of treatment; viability as percent of untreated control (FIG. 4A-C)
Experimental: Ten out of the twelve HA-derivative compounds listed in Table 1 were tested to determine whether they adversely affected the viability of cultured cells from INCL patients. […] Briefly, following treatment with HA-derivatives INCL cells were incubated with Thiazolyl Blue Tetrazolium […] for 4 hours at 37° C. Formazan crystals thus formed were dissolved in acidified isopropanol and absorption was measured at 570 nm. Viability was expressed as percent of untreated control.
Briefly, normal fibroblasts (GM 00498) were obtained from the Coriell Institute of Medical Research, USA. PPT1-deficient INCL fibroblasts were isolated from skin biopsy samples of INCL patients admitted to an ongoing clinical protocol (#01-CH-0086) approved by the Institutional Review Board (IRB) of the National Institute of Child Health and Human Development (NICHD) at the National Institute of Health (NIH). […] The fibroblasts were cultured in the presence or absence of varying concentrations of each of the HA-derivatives for 48 hours, after which the viability of the cells was determined using the MTT-Cell Viability Assay by T. Mossman, (Rapid colorimetric assay for cellular growth and survival. J. Immunol. Method. 65 (1983) 55-63).

[2] = Cleavage of thioester linkage in [14C]palmitoyl-CoA, release of free [14C]palmitate (TLC, autoradiography); type: biochemical; conditions: varying concentrations; various incubation times; [14C]palmitate production
Experimental: It has been reported that thioester linkages in s-acylated proteins are labile, and that compounds having nucleophilic properties are able to disrupt such linkages. Thus, the ability of derivatives of hydroxylamine to disrupt thioester linkages in s-acylated proteins was tested. Twelve HA-derivatives, described in Table 1, were screened for their ability to cleave thioester linkage in [^14C]palmitoyl˜CoA (a model thioester substrate of PPT1), mediating the release of free [^14C]palmitic acid, a process depicted in FIG. 2. […] [^14C]-palmitoyl-CoA was incubated for 1 hour with each of the HA derivatives and the reaction mixture was resolved by thin layer chromatography (TLC) followed by autoradiography. The free [^14C]-palmitate bands were visible and quantitated by densitometric analysis of the bands.

[3] = Solubility in tissue culture media; type: physicochemical

| solubility in tissue culture media [3] | Compound | dose- and time-dependence of thioester linkage cleavage in [14C]palmitoyl-CoA [2] | also measured |
| --- | --- | --- | --- |
|  | O=C(c1ccccc1)N(O)c1ccccc1 [N-Benzoyl-N-phenyl hydroxylamine] |  | toxicity / viability of INCL cells (MTT) [1]: all ten compounds except N-Benzoyl-N-phenyl hydroxylamine are non-toxic |
|  | CNO [methyl-HA, N-Methylhydroxylamine] | cleaved the thioester linkage in a dose-dependent and time-dependent manner |  |
|  | ONCc1ccccc1 [benzyl-HA, N-Benzylhydroxylamine] | cleaved the thioester linkage in a dose-dependent and time-dependent manner |  |
| insoluble in tissue culture media | ON(Cc1ccccc1)Cc1ccccc1 [N,N-dibenzylhydroxylamine, N,N-Dibenzylhydroxylamine] |  |  |
| insoluble in tissue culture media | CC(ON(C(c1ccccc1)C(C)C)C(C)(C)C)c1ccc(CCl)cc1 (centres unmarked) [N-tert-Butyl-O-[1-[4-(chloromethyl)phenyl]ethyl]-N-(2-methyl-1-phenylpropyl)hydroxylamine] |  |  |
